# Numbered stars: 1 amine (or outer) side, 2 acyl side, 3 side chain; on linkers, the order of the positions; unused ones are H or OH. Bridge positions count the residues as written; N and C are the ends. Square brackets hold non-standard residues; d marks the D form. Peptide text beside a SMILES is read from it. I, II: the chains in the order shown. Dmt = Cc1cc(O)cc(C)c1C[C@H](N)C(=O)O; Ethylenediamine = C(CN[*:2])N[*:1]; Tic = O=C(O)[C@@H]1Cc2ccccc2CN1
# Legend:
# δ-opioid receptor [1] = biological target: T1, δ-opioid receptor (Mus musculus, UniProt P32300); settings: δ-antagonism in vitro; cited from earlier work
# μ-opioid receptor = settings: μ-antagonism in vitro; cited from earlier work
# δ-opioid receptor (DOR) = δ-opioid receptor (DOR) (Rattus norvegicus, UniProt P33533); settings: cited from earlier work; for Ki: read-out: Receptor affinity Ki δ, rat brain membranes
# μ-opioid receptor (MOR) = μ-opioid receptor (MOR) (Rattus norvegicus, UniProt P33535); settings: cited from earlier work; for Selectivity Kiδ/Kiμ: ratio of binding Ki values; for Ki: read-out: Receptor affinity Ki μ, rat brain membranes
# δ-opioid receptor [2] = biological target: T1, δ-opioid receptor; settings: read-out: MVD IC50; agonism, mouse vas deferens; cited from earlier work
# μ-opioid receptors = μ-opioid receptors (Cavia porcellus, UniProt A0ACM8Q262); settings: read-out: GPI IC50; agonism, guinea pig ileum; cited from earlier work
# δ-opioid receptor [3] = biological target: T1, δ-opioid receptor; assay: Effect on deltorphin C stimulated GTPγS binding in NG108-15 cell membranes; assay type: biochemical; settings: for GTPγS (pA2)δ: antagonism of deltorphin C stimulated GTPγS binding, NG108-15 cell membranes, NA: not active (>20.000nM)
# T1 sequence (P32300 whole entry): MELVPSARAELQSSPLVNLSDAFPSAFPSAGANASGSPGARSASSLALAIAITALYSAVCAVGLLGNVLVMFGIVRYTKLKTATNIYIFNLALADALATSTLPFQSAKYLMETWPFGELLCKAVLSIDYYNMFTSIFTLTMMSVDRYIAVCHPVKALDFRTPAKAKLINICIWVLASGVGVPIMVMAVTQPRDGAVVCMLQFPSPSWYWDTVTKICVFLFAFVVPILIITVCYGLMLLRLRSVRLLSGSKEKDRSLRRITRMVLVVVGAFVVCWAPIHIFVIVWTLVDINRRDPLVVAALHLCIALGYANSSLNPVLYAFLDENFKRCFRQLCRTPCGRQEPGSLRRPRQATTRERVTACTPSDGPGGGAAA
# δ-opioid receptor (DOR), sequence (P33533 whole entry): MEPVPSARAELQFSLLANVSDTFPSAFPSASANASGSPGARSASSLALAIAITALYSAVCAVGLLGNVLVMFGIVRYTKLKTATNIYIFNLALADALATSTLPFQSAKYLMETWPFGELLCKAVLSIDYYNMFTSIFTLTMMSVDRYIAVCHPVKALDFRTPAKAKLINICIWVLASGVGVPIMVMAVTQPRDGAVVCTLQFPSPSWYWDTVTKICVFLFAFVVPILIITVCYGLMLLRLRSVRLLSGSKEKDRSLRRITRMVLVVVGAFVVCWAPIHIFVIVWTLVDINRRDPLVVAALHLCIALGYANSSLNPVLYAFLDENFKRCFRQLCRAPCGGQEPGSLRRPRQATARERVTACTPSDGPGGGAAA
# μ-opioid receptor (MOR), sequence (P33535 whole entry): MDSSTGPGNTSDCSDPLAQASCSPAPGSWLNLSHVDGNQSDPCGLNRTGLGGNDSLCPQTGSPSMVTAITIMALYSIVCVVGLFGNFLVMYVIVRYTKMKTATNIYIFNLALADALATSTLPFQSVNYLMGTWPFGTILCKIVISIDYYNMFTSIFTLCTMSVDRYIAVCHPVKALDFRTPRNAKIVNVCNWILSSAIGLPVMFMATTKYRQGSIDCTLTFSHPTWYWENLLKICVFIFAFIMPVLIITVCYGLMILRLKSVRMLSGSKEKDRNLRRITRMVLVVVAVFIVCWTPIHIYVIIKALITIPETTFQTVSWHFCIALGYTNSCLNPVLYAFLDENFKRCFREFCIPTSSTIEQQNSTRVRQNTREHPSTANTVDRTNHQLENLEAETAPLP
# μ-opioid receptors, sequence (A0ACM8Q262 1-400): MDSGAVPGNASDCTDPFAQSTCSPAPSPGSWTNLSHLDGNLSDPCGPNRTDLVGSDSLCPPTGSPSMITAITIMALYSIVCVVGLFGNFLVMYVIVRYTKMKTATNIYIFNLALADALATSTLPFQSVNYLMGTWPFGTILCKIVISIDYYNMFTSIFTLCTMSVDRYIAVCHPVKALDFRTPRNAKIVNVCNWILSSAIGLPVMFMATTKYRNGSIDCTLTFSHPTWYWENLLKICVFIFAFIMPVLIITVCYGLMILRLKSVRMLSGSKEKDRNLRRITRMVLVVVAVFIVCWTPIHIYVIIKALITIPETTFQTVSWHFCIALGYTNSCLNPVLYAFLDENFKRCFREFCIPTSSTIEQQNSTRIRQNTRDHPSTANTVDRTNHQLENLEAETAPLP
compound,measurement,setting,value
"Cc1cc(O)cc(C)c1CC(N)C(=O)N1Cc2ccccc2CC1C(=O)NCCCCCCNC(=O)C1Cc2ccccc2CN1C(=O)C(N)Cc1c(C)cc(O)cc1C (stereo not drawn) [1,6-bis[H-Dmt-Tic-NH]hexane]",pA2 δ,δ-opioid receptor [1],10.62
Cc1cc(O)cc(C)c1CC(N)C(=O)N1Cc2ccccc2CC1C(=O)NCCCCNC(=O)C1Cc2ccccc2CN1C(=O)C(N)Cc1c(C)cc(O)cc1C (stereo not drawn) [butylene-bis[Dmt-Tic-NH]],pA2 δ,δ-opioid receptor [1],10.51
same,pA2 μ,μ-opioid receptor,6.99
"Cc1cc(O)cc(C)c1C[C@H](N)C(=O)N[C@H]1Cc2ccccc2CN(CC(=O)NCc2ccccc2)C1=O [compound 6, H-Dmt-Aba-Gly-NH-Bn]",Ki,δ-opioid receptor (DOR),11 ± 2.3 nM
same,Selectivity Kiδ/Kiμ,μ-opioid receptor (MOR),24
same,Ki,μ-opioid receptor (MOR),0.46 ± 0.07 nM
same,IC50,δ-opioid receptor [2],830 ± 70 nM
same,IC50,μ-opioid receptors,51 ± 5 nM
"Cc1cc(O)cc(C)c1C[C@H](N)C(=O)N[C@@H]1Cc2c([nH]c3ccccc23)CN(CC(=O)NCc2ccccc2)C1=O [compound 7, H-Dmt-D-Aia-Gly-NH-Bn]",Ki,δ-opioid receptor (DOR),160 ± 23 nM
same,Selectivity Kiδ/Kiμ,μ-opioid receptor (MOR),48
same,Ki,μ-opioid receptor (MOR),3.35 ± 0.28 nM
same,IC50,δ-opioid receptor [2],1500 ± 139 nM
same,IC50,μ-opioid receptors,14.9 ± 1.6 nM
"Cc1cc(O)cc(C)c1C[C@@H](C(=O)N[C@H]1Cc2c([nH]c3ccccc23)CN(CC(=O)O)C1=O)N(C)C [compound 8, Me2Dmt-Aia-Gly-OH]",Selectivity Kiμ/Kiδ,δ-opioid receptor (DOR); ratio of binding Ki values,132
same,Ki,δ-opioid receptor (DOR),6.64 ± 0.89 nM
same,Ki,μ-opioid receptor (MOR),874 ± 100 nM
"Cc1cc(O)cc(C)c1C[C@H](N)C(=O)N1Cc2ccccc2C[C@H]1C(=O)NCCNC(=O)[C@@H]1Cc2ccccc2CN1C(=O)[C@@H](N)Cc1c(C)cc(O)cc1C [compound 9, ethylene-bis(H-Dmt-Tic-NH)] (I: H-[Dmt]-[Tic] / II: H-[Dmt]-[Tic]; linker I:C-II:C via Ethylenediamine)",Kb,δ-opioid receptor [3],0.912 nM
same,GTPγS (pA2)δ,δ-opioid receptor [3],9.04
"Cc1cc(O)cc(C)c1C[C@H](N)C(=O)N[C@@H]1Cc2c([nH]c3ccccc23)CN(CC(=O)NCCNC(=O)CN2Cc3[nH]c4ccccc4c3C[C@@H](NC(=O)[C@@H](N)Cc3c(C)cc(O)cc3C)C2=O)C1=O [compound 11, ethylene-bis(H-Dmt-D-Aia-Gly-NH)]",GTPγS (pA2)δ,δ-opioid receptor [3],unable to diminish the GTPγS binding
"Cc1cc(O)cc(C)c1C[C@H](N)C(=O)N1Cc2ccccc2C[C@H]1C(=O)NCCN(CCNC(=O)[C@@H]1Cc2ccccc2CN1C(=O)[C@@H](N)Cc1c(C)cc(O)cc1C)CCNC(=O)[C@@H]1Cc2ccccc2CN1C(=O)[C@@H](N)Cc1c(C)cc(O)cc1C [compound 15, tris-[H-Dmt-Tic-NH-ethylene]-N]",Kb,δ-opioid receptor [3],2.29 nM
"Cc1cc(O)cc(C)c1C[C@H](N)C(=O)N[C@H]1Cc2ccccc2CN(CC(=O)NCCN(CCNC(=O)CN2Cc3ccccc3C[C@H](NC(=O)[C@@H](N)Cc3c(C)cc(O)cc3C)C2=O)CCNC(=O)CN2Cc3ccccc3C[C@H](NC(=O)[C@@H](N)Cc3c(C)cc(O)cc3C)C2=O)C1=O [compound 16, tris-[H-Dmt-Aba-Gly-NH-ethylene]-N]",Kb,δ-opioid receptor [3],22.9 nM
